The text below walks through data of publication PMC3189208 (PLoS ONE, 2011).

Where two headings read alike, the source gives them in different places.

One experiment concerns the target MOR. The conditions noted are these: cited from earlier work.
A further experiment has as its system parental HEK293 cells. It is filed as cell-based, human.
The test system of experiment [1] is MOR kinase pathways in HEK-MOR cells. Format: cell-based, human.
For experiment [2], the system named is MOR G-protein signaling in HEK-MOR cells. It is filed as cell-based, human.

A word on the Ki: it is a measure of affinity in units of concentration, obtained from inhibition or displacement. Take `COc1ccc2c3c1O[C@H]1[C@@H](O)C=C[C@H]4[C@@H](C2)NCC[C@@]341` [(-)-norcodeine]: on MOR, the inhibitory constant (Ki) is 0.267 µM.
For `O=C1/C(=C/c2ccccc2)C[C@@]2(O)[C@H]3Cc4ccc(O)c5c4[C@@]2(CCN3CC2CC2)[C@H]1O5` [BNTX], the “DMR produced by ligand in parental HEK293 cells” value with parental HEK293 cells is recorded as “negative DMR”. For the same molecule, the Ki at MOR was 0.018 µM.
For `O=C(Cc1ccc(Cl)c(Cl)c1)N1CCCCC1CN1CCCC1` (stereo not drawn) [BRL-52537], the inhibitory constant (Ki) on MOR is 1.56 µM. For the same molecule, the “maximal DMR response after SB202190 pretreatment vs untreated” value in experiment [1] was “significantly reduced”. Further, in experiment [2], the “ligand-induced DMR in cholera toxin (CTx)-pretreated cells vs untreated” value was “reduce”.
On to `C[C@@H](NC(=O)[C@@H](N)Cc1ccc(O)cc1)C(=O)NCC(=O)N(C)[C@@H](Cc1ccccc1)C(=O)NCCO` [DAMGO], for which the “maximal DMR response after SB202190 pretreatment vs untreated” value in experiment [1] is on record as “not completely blunted”. Further, in experiment [2], the “ligand-induced DMR in pertussis toxin (PTx)-pretreated cells” value is “small P-DMR”.
The term IC50 denotes the concentration at which inhibition is half-maximal. Take `CN(C(=O)Cc1ccc(Cl)c(Cl)c1)[C@H](CN1CCCC1)c1cccc(N=C=S)c1` [DIPPA, 2-(3,4-Dichlorophenyl)-N-methyl-N-[(1S)-1-(3-isothiocyanatophenyl)-2-(1-pyrrolidinyl)ethyl]acetamide]: the IC50 in the experiment on MOR was 1.8 µM. In addition, in experiment [1], the “late DMR response after U0126 pretreatment vs untreated” value is “significantly suppressed”, the “maximal DMR response after SB202190 pretreatment vs untreated” value is “significantly reduced” and the “maximal DMR response after U0126 pretreatment vs untreated” value is reported as “sensitive”.
Turning to `CN(C(=O)Cc1ccc(Cl)c(Cl)c1)[C@H](CN1CCCC1)c1ccccc1` [ICI 199,441], in the experiment on parental HEK293 cells (ligand 10 µM), the “DMR produced by ligand in parental HEK293 cells” value was “small N-DMR”.
Turning to `Oc1ccc2c3c1O[C@H]1c4c(c5ccccc5n4Cc4ccccc4)C[C@@]4(O)[C@@H](C2)N(CC2CC2)CC[C@]314` [N-benzylnaltrindole], the concentration for half-maximal inhibition (IC50) in the experiment on MOR was 0.0112 µM.
Consider `Oc1ccc2c3c1O[C@H]1c4oc5ccccc5c4C[C@@]4(O)[C@@H](C2)N(CC2CC2)CC[C@]314` [Naltriben], for which the Ki at MOR is 0.0808 µM.
Take `C=CCN1CCC2(C)c3cc(O)ccc3CC1C2C` (stereo not drawn) [SKF10047]: the Ki on MOR is 1.9 µM.
Consider `NC(=O)[C@H](Cc1ccccc1)NC(=O)[C@H](Cc1ccccc1)NC(=O)[C@@H]1CCCN1C(=O)[C@@H](N)Cc1ccc(O)cc1` [endomorphin-2], for which, on MOR, the Ki is 0.00043 µM. In experiment [2], the “ligand-induced DMR in cholera toxin (CTx)-pretreated cells vs untreated” value is “reduce”.
In the case of `C=CCN1CC[C@]23CCCC[C@H]2[C@H]1Cc1ccc(O)cc13` [levallorphan], the inhibition constant Ki on MOR is 0.0017 µM.
Take `C=CC[N+]1(C)CC[C@]23c4c5ccc(O)c4O[C@H]2C(=O)CC[C@@]3(O)[C@H]1C5` (stereo partly drawn) [naloxone methionone]: the inhibitory constant (Ki) at MOR is 0.0289 µM.
As usually defined, the EC50 is the concentration that produces a half-maximal response. As for `COC(=O)[C@@H]1C[C@H](OC(C)=O)C(=O)[C@H]2[C@@]1(C)CC[C@H]1C(=O)O[C@H](c3ccoc3)C[C@]21C` [salvinorin A], in the experiment with MOR, the EC50 was […].
As to `COc1cccc(C2(O)CCCCC2CN(C)C)c1` (stereo not drawn) [tramadol], in experiment [1], the “maximal DMR response after SB202190 pretreatment vs untreated” value is given as “significantly reduced” and the “maximal DMR response after U0126 pretreatment vs untreated” value is “sensitive”.
For the molecule `COC(=O)/C=C/C(=O)N[C@@H]1CC[C@@]2(O)[C@H]3Cc4ccc(O)c5c4[C@@]2(CCN3CC2CC2)[C@H]1O5` [β-funaltrexamine], the Ki at MOR is 0.00033 µM. For the same molecule, in experiment [1], the “late DMR response after SP100625 pretreatment vs untreated” value is “potentiated” and the “maximal DMR response after SP100625 pretreatment vs untreated” value is on record as “enhanced”.
As a reminder, the Kd is the equilibrium constant for the complex coming apart. (D-Ala^2, D-Leu^5) enkephalin: the dissociation constant Kd at MOR is 0.15 µM.
As for (met^5)-enkephalin, the inhibitory constant (Ki) on MOR is 0.003 µM.
DPDPE: the Kd at MOR is 0.6 µM.
On to DSLET, for which the Kd at MOR is 0.12 µM. In addition, the “maximal DMR response after SB202190 pretreatment vs untreated” value in experiment [1] was “significantly reduced”.
Take deltorphin II: the Kd on MOR was 0.0033 µM.
For the molecule dynorphin A 1-8, the inhibition constant Ki at MOR is 0.0223 µM.
With dynorphin A 1-13, at MOR, the equilibrium dissociation constant (Kd) was 0.031 µM. Besides, in experiment [1], the “maximal DMR response after SB202190 pretreatment vs untreated” value was “significantly reduced” and the “maximal DMR response after SP100625 pretreatment vs untreated” value is given as “enhanced”.
Regarding dynorphin B, the Ki on MOR was 0.013 µM.
Regarding morphiceptin, in the experiment with MOR, the concentration for half-maximal inhibition (IC50) is 0.0198 µM.
As for nociceptin 1-13: ORL1 agonist, on MOR, the Ki is 0.27 µM.
